Results on nine compounds are retold here after patent publication US7112553B1, “Pesticidal indazole or benzotriazole derivatives” (Syngenta Limited, priority 1999, dated 2006).

Molecules are shown by their SMILES.

Test [1] concerns Phytophthora infestans lycopersici (PHYTIN) on tomatoes. The class given is in vivo. Conditions: 100 ppm foliar spray; tomatoes inoculated one day after chemical application (Prot).
Test [2] concerns Puccinia recondita (PUCCRT) on wheat. Conditions: in vivo.
Test [3] has as its system Pyricularia oryzae (PYRIOR) on rice. It is filed as in vivo. Conditions: 100 ppm foliar spray; rice inoculated one day after chemical application (Prot).
Test [4] deals with Uncinula necator (UNCINE) on vines. Conditions: in vivo.

Take `CCCn1nc2ccc(CC(=O)Nc3snc(C)c3Cl)cc2n1` [Sample 1, N-(4-chloro-3-methylisothiazol-5-yl)-(2-propylbenzotriazol-5-yl)acetamide]: the “PRCO (Percentage Reduction from Control) PHYTIN Prot” value in test [1] is 100%. Also, the “PRCO (Percentage Reduction from Control) PUCCRT Prot” value in test [2] turned out to be 100%. Moreover, in test [3], the “PRCO (Percentage Reduction from Control) PYRIOR Prot” value is listed as 100%.
For `Cc1nsc(NC(=O)Cc2ccc3nn(C)nc3c2)c1Cl` [Sample 2], the “PRCO (Percentage Reduction from Control) PYRIOR Prot” value in test [3] turned out to be 87%.
`CCCC(C)n1nc2ccc(CC(=O)Nc3snc(C)c3Cl)cc2n1` (stereo not shown) [Sample 30]: the “PRCO (Percentage Reduction from Control) PHYTIN Prot” value in test [1] is listed as 100%. In addition, in test [2], the “PRCO (Percentage Reduction from Control) PUCCRT Prot” value is on record as 100%. Further, the “PRCO (Percentage Reduction from Control) UNCINE Erad” value in test [4] is on record as 100%.
As to `Cc1nsc(NC(=O)Cc2ccc3nn(-c4ccc(C(F)(F)F)cc4Cl)nc3c2)c1Cl` [Sample 11], the “PRCO (Percentage Reduction from Control) PYRIOR Prot” value in test [3] amounted to 100%.
As to `CCC(C)n1nc2ccc(CC(=O)Nc3snc(C)c3Cl)cc2n1` (stereo not shown) [Sample 31], in test [1], the “PRCO (Percentage Reduction from Control) PHYTIN Prot” value turned out to be 100%. The “PRCO (Percentage Reduction from Control) PUCCRT Prot” value in test [2] was found to be 100%. Besides, the “PRCO (Percentage Reduction from Control) UNCINE Erad” value in test [4] is listed as 100%.
For the compound `CCCCCn1nc2ccc(CC(=O)Nc3snc(C)c3Cl)cc2n1` [Sample 9], the “PRCO (Percentage Reduction from Control) PHYTIN Prot” value in test [1] stood at 100%. Further, in test [2], the “PRCO (Percentage Reduction from Control) PUCCRT Prot” value is 99%. Further, in test [3], the “PRCO (Percentage Reduction from Control) PYRIOR Prot” value worked out at 100%.
Turning to `Cc1nsc(NC(=O)Cc2ccc3nn(Cc4ccc(F)cc4)nc3c2)c1Cl` [Sample 4], the “PRCO (Percentage Reduction from Control) PYRIOR Prot” value in test [3] was found to be 92%.
As for `CCCn1nc2ccc(CC(=O)N=c3sn(COCC)c(C)c3Cl)cc2n1` [Sample 34, N-[2-ethoxymethyl-4-chloro-3-methylisothiazolin-5-ylidene]-(2-propylbenzo-triazol-5-yl)acetamide], the “PRCO (Percentage Reduction from Control) PHYTIN Prot” value in test [1] was determined as 81%. The “PRCO (Percentage Reduction from Control) PYRIOR Prot” value in test [3] amounted to 93%. Besides, the “PRCO (Percentage Reduction from Control) UNCINE Erad” value in test [4] turned out to be 100%.
With `Cc1nsc(NC(=O)Cc2ccc3nn(CC(F)(F)F)nc3c2)c1Cl` [Sample 8], the “PRCO (Percentage Reduction from Control) PYRIOR Prot” value in test [3] was 100%.
